Among the data in PubChem BioAssay AID723 (NMMLSC, 2007) are IC50 and Ki values, retold here.

For this assay, the target named is N-formyl peptide receptor 2 (Homo sapiens) (UniProt P25090). Briefly: human FPR2 ligand displacement potency – cell-based, flow cytometry, Ki from IC50, selectivity assay for FPR1 ligand SAR project, dose response (AID 723). As to conditions: FPRL1-expressing cells, fluorescent ligand binding competition; for Ki: measured here: Ki from IC50. (In general: A flow cytometer gives signals particle by particle.)
Sequence of N-formyl peptide receptor 2 (Homo sapiens) (P25090 whole entry, looked up): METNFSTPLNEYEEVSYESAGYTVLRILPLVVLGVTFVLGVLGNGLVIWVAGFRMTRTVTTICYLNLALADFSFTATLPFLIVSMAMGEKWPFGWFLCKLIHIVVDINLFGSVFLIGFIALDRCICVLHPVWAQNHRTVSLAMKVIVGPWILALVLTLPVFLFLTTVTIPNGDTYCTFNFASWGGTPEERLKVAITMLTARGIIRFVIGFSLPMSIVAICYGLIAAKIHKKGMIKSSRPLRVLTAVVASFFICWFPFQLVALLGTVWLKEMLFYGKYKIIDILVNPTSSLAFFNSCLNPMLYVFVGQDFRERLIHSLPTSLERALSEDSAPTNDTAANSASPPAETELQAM

Structures are written as SMILES. Activity calls are given as the source filed them. No rule for the calls is given here.

A word on the IC50: it is the concentration at which inhibition is half-maximal. Broadly, the Ki is a dissociation constant, usually derived from enzyme kinetics or from competition with a known ligand. Read a low Ki as a stronger hold on the target.

As to `COc1ccc(C2C(C(=O)c3cccs3)=C(O)C(=O)N2CCCn2ccnc2)cc1` (stereo not drawn), the IC50 is > 66.7 µM (inactive) and the Ki was over 40.3 µM.
On the same counts, the results for `COCCN1C(=O)C(=O)/C(=C(/O)c2ccccc2)C1c1cc(OC)ccc1OC` (stereo not drawn) are > 66.7 µM (inactive) and over 40.3 µM.
Take `COc1ccc(C2C(C(=O)c3ccco3)=C(O)C(=O)N2CCN2CCOCC2)c(OC)c1` (stereo not drawn): the IC50 was > 66.7 µM (inactive) and the Ki was over 40.3 µM.
With `COc1ccc(/C(O)=C2/C(=O)C(=O)N(CCc3c[nH]c4ccccc34)C2c2ccc(C(C)C)cc2)cc1` (stereo not drawn), the IC50 is > 66.7 µM (inactive) and the Ki is over 40.3 µM.
Molecule `COc1ccc(OC)c(CNC(=O)Cn2c(=O)sc3ccccc32)c1` gave a Ki of over 40.3 µM.
Turning to `CC(=O)C1=C(O)C(=O)N(CCc2c(C)[nH]c3ccccc23)C1c1cccc(F)c1` (stereo not drawn), the IC50 is > 66.7 µM (inactive) and the inhibitory constant (Ki) is over 40.3 µM.
On the same counts, the results for `CCCCCCOc1cccc(N2C(=O)C(=O)/C(=C(\O)c3ccccc3)C2c2cccc(F)c2)c1` (stereo not drawn) are > 66.7 µM (inactive) and over 40.3 µM.
In the same order, the values of `COCCN1C(=O)C(=O)/C(=C(/O)c2ccccc2)C1c1ccccc1OC` (stereo not drawn) are > 66.7 µM (inactive) and over 40.3 µM.
In the same order, the values of `COc1ccc(/C(O)=C2/C(=O)C(=O)NC2c2ccc(OC)cc2OC)cc1` (stereo not drawn) are > 66.7 µM (inactive) and over 40.3 µM.
For the molecule `Cc1ccc(N2C(=O)C(=O)/C(=C(\O)c3ccccc3)C2c2cccc(F)c2)cc1Br` (stereo not drawn), the IC50 is > 66.7 µM (inactive) and the Ki is over 40.3 µM.
Consider `COc1ccc(C2C(C(=O)c3cc4ccccc4o3)=C(O)C(=O)N2CCN(C)C)cc1OC` (stereo not drawn), for which the IC50 was > 66.7 µM (inactive) and the Ki is over 40.3 µM.
Take `COc1ccccc1-c1c(C(F)(F)F)oc2cc(OC(=O)c3ccco3)ccc2c1=O`: the Ki is over 40.3 µM.
In the case of `COc1ccc(OC)c(C2/C(=C(\O)c3ccccc3)C(=O)C(=O)N2c2ccc(C)c(Cl)c2)c1` (stereo not drawn), the IC50 is > 66.7 µM (inactive) and the Ki was over 40.3 µM.
Consider `N#Cc1c(N/C(=C\C(=O)c2ccccc2)C(=O)O)sc2c1CCC2`, for which the IC50 was > 66.7 µM (inactive) and the Ki was over 40.3 µM.
Regarding `Cc1ccc(/C(O)=C2\C(=O)C(=O)N(c3nnc(C)s3)C2c2ccc(C(C)C)cc2)cc1` (stereo not drawn), the IC50 was > 66.7 µM (inactive) and the Ki was over 40.3 µM.
In the case of `COc1cc(C2C(C(C)=O)=C(O)C(=O)N2c2ccc(Br)cc2)ccc1O` (stereo not drawn), the IC50 is > 66.7 µM (inactive) and the Ki is over 40.3 µM.
Regarding `CCCC(=O)N(Cc1ccco1)S(=O)(=O)c1cccc2cccnc12`, the inhibition constant (Ki) is over 40.3 µM.
In the case of `COc1ccc(C2/C(=C(\O)c3ccc(C)cc3)C(=O)C(=O)N2Cc2cccnc2)c(OC)c1` (stereo not drawn), the IC50 was > 66.7 µM (inactive) and the Ki is over 40.3 µM.
In the same order, the values of `COc1ccc(C2/C(=C(\O)c3ccccc3)C(=O)C(=O)N2c2cccc(Cl)c2)c(OC)c1` (stereo not drawn) are > 66.7 µM (inactive) and over 40.3 µM.
As to `O=C(C1=C(O)C(=O)N(CCCn2ccnc2)C1c1cccnc1)c1ccco1` (stereo not drawn), the IC50 is > 66.7 µM (inactive) and the inhibitory constant (Ki) is over 40.3 µM.
On the same counts, the results for `O=C(O)CCCN1C(=O)C(=O)/C(=C(/O)c2ccccc2)C1/C=C/c1ccccc1` (stereo not drawn) are > 66.7 µM (inactive) and over 40.3 µM.
On the same counts, the results for `COCCCN1C(=O)C(=O)/C(=C(/O)c2ccccc2)C1c1ccc(O)c(OC)c1` (stereo not drawn) are > 66.7 µM (inactive) and over 40.3 µM.
In the same order, the values of `O=C1NC(c2ccc(Br)cc2)/C(=C(\O)c2ccc(Cl)cc2)C1=O` (stereo not drawn) are > 66.7 µM (inactive) and over 40.3 µM.
In turn, `COc1ccc(-c2c(C)[nH]n3c(=O)c4c(nc23)CCCC4)cc1` showed a Ki of over 40.3 µM.
Regarding `O=C1C(=O)N(CN2CCOCC2)C(c2ccc(Br)cc2)/C1=C(\O)c1ccccc1` (stereo not drawn), the IC50 is > 66.7 µM (inactive) and the Ki was over 40.3 µM.
On the same counts, the results for `COc1ccc(C2/C(=C(\O)c3ccccc3)C(=O)C(=O)N2CCCn2ccnc2)c(OC)c1` (stereo not drawn) are > 66.7 µM (inactive) and over 40.3 µM.
On the same counts, the results for `Cc1ccc(/C(O)=C2\C(=O)C(=O)N(Cc3cccnc3)C2c2ccc(Br)cc2)cc1` (stereo not drawn) are > 66.7 µM (inactive) and over 40.3 µM.
As to `O=C(C1=C(O)C(=O)N(CCCn2ccnc2)C1c1cccnc1)c1cc2ccccc2o1` (stereo not drawn), the IC50 was > 66.7 µM (inactive) and the Ki is over 40.3 µM.
Regarding `COc1ccc(OC)c(C2/C(=C(\O)c3ccc(C)cc3)C(=O)C(=O)N2CCC(=O)O)c1` (stereo not drawn), the IC50 is > 66.7 µM (inactive) and the Ki is over 40.3 µM.
Molecule `CCc1cc2c(=O)c(-c3nc4ccccc4n3C)c(C)oc2cc1OC(C)=O` came in with a Ki of over 40.3 µM.
Still for that read-out and setting: next, `COc1cccc(/C=C2/C(=O)NN(c3ccc(C)cc3)C2=O)c1`: over 40.3 µM.
In the case of `COCCN1C(=O)C(=O)/C(=C(/O)c2ccccc2)C1c1ccc(C(C)C)cc1` (stereo not drawn), the IC50 is > 66.7 µM (inactive) and the Ki is over 40.3 µM.
Regarding `COc1ccc(-c2c(C(F)(F)F)oc3cc(OC(=O)c4cccnc4)ccc3c2=O)cc1OC`, the Ki was over 40.3 µM.
Regarding `CC(C)C(=O)N(Cc1ccco1)S(=O)(=O)c1cccc2cccnc12`, the Ki was over 40.3 µM.
Same read-out and setting: the result for `O=C(Oc1ccc2c(=O)c(Oc3ccccc3Br)c(C(F)(F)F)oc2c1)c1cccs1` reads over 40.3 µM.
Regarding `CC(C)c1ccc(C2/C(=C(\O)c3ccccc3)C(=O)C(=O)N2Cc2cccnc2)cc1` (stereo not drawn), the IC50 is > 66.7 µM (inactive) and the inhibition constant Ki was over 40.3 µM.
The molecule `COc1ccc(-c2c(C(F)(F)F)oc3cc(OC(=O)c4ccco4)ccc3c2=O)cc1OC` had a Ki of over 40.3 µM.
As to `COc1ccc(C2C(C(=O)N3CCCC(C)C3)c3ccccc3C(=O)N2C)cc1` (stereo not drawn), the Ki is over 40.3 µM.
As to `O=C1C(=O)N(c2ccc(F)cc2)C(c2ccc(Br)cc2)/C1=C(/O)c1ccccc1` (stereo not drawn), the IC50 was > 66.7 µM (inactive) and the Ki is over 40.3 µM.
Take `COc1ccc(C2C(C(=O)c3ccco3)=C(O)C(=O)N2CCCN2CCOCC2)cc1OC` (stereo not drawn): the IC50 is > 66.7 µM (inactive) and the Ki is over 40.3 µM.
For `Cc1cccc(C2CC(=O)NC3=C2C(=O)CC(c2cccs2)C3)c1` (stereo not drawn), the Ki is over 40.3 µM.
As to `COc1ccc(-c2c(C(F)(F)F)oc3c(CN4CCOCC4)c(O)ccc3c2=O)cc1OC`, the Ki was over 40.3 µM.
Take `CCCCCCN1C(=O)C(=O)/C(=C(\O)c2ccccc2)C1c1ccc(O)c(OC)c1` (stereo not drawn): the IC50 was > 66.7 µM (inactive) and the Ki is over 40.3 µM.
`COc1ccc(OC)c(C2/C(=C(\O)c3ccccc3)C(=O)C(=O)N2c2cccnc2)c1` (stereo not drawn): the IC50 is > 66.7 µM (inactive) and the inhibition constant Ki is over 40.3 µM.
In the same order, the values of `COCCCN1C(=O)C(=O)/C(=C(/O)c2ccccc2)C1c1ccc(C(C)C)cc1` (stereo not drawn) are > 66.7 µM (inactive) and over 40.3 µM.
`O=C(Oc1ccc2c(=O)c(-c3ccccc3Cl)c(C(F)(F)F)oc2c1)c1cccs1` registered a Ki of over 40.3 µM.
`CCC(C)(C(=O)NC1CCCCC1)N(Cc1cccs1)C(C)=O` (stereo not drawn) returned a Ki of over 40.3 µM.
In the case of `COc1ccc(C2C(C(=O)c3cccs3)=C(O)C(=O)N2CCN2CCOCC2)c(OC)c1` (stereo not drawn), the IC50 is > 66.7 µM (inactive) and the Ki is over 40.3 µM.
`Cc1sc2c(c1C)c(=O)n(Cc1ccccc1)c(=O)n2Cc1ccccc1F` gave a Ki of over 40.3 µM.
On to `O=C(C1=C(O)C(=O)N(CCCN2CCOCC2)C1c1cccnc1)c1cc2ccccc2o1` (stereo not drawn), for which the IC50 was > 66.7 µM (inactive) and the Ki was over 40.3 µM.
With `O=C1CC(c2ccccc2C(F)(F)F)C2=C(CC(c3cccs3)CC2=O)N1` (stereo not drawn), the Ki is over 40.3 µM.
Take `O=C(C1=C(O)C(=O)N(CCc2ccccc2)C1c1ccc(Cl)cc1)c1cccs1` (stereo not drawn): the IC50 was > 66.7 µM (inactive) and the Ki was over 40.3 µM.
Take `COc1cccc(-c2ccnc3[nH]n(-c4ccccc4)c(=O)c23)c1`: the Ki was over 40.3 µM.
Regarding `COc1cc(C2C(C(=O)c3cc4ccccc4o3)=C(O)C(=O)N2CCN(C)C)ccc1O` (stereo not drawn), the IC50 was > 66.7 µM (inactive) and the Ki is over 40.3 µM.
`Cc1cccc(C)c1NC(=O)C(NC(=O)Cc1cccs1)c1ccccc1` (stereo not drawn): the inhibition constant (Ki) is over 40.3 µM.
Same read-out and setting: next, `O=C(O)C1CCCCC1C(=O)Nc1ccc(Br)cc1` (stereo not drawn): over 40.3 µM.
Same read-out and setting: next, `Cc1nc2c(-c3ccc(Cl)cc3)c(C(F)(F)F)[nH]n2c(=O)c1Cc1ccccc1`: over 40.3 µM.
